From patent US20250346564A1 (ARase Therapeutics Inc., priority 2022, published 2025) come the findings set out here.

For test [1], the target named is T1, PARG (Homo sapiens (Human), UniProt Q86W56). Kind of test: PARG target engagement cellular assay (PAR polymer immunostaining after cisplatin). Particulars: HCC1806 cells treated with cisplatin, then compound titration for 1 h; PAR polymer antibody readout. It is filed as cell-based. How it is done:
Example a. Inhibition of PARG Target Engagement Cellular Assay
The ability of the compounds of the Examples to inhibit PARG was determined as described below. After treating HCC1806 cells with cisplatin, followed by PARG inhibitor compound titration for 1 h, the cells were fixed in formaldehyde. The cells were permeabilized, blocked, and incubated with antibody against poly (ADP) ribose (PAR) polymer. The cells were then washed and incubated with IR 800 conjugated secondary antibody together with TO-PRO3 iodide nuclear stain. After washing, images of the cells were captured and analyzed on Odyssey CLx instrument and analyzed using LI-COR image studio software.

Test [2] has as its target T1, PARG. Nature of the test: PARG TFMU assay (4-(trifluoromethyl)umbelliferone substrate). It is filed as biochemical. Particulars: PARG 250 pM or 2 nM, 10-point dose response. The procedure:
Example C. Inhibition of PARG TEMU Assay
The ability of the compounds of the Examples to inhibit PARG activity in 4. (trifluoromethyl)umbelliferone (TFMU) assay was determined as described below. PARG inhibitors were added into 384 well plate for a 10-point dose response curve at 1:3 dilutions. TFMU PARG substrate and PARG (250 pM or 2 nM) were then added to the plate to initiate enzymatic reaction. After incubation with the reagent, […] was read. IC50 values were calculated using set control points for 100% inhibition as no enzyme and 0% inhibition 250 pM or 2 nM of PARG enzyme.

Some results are limits rather than exact numbers.

T1 sequence (Q86W56 whole entry): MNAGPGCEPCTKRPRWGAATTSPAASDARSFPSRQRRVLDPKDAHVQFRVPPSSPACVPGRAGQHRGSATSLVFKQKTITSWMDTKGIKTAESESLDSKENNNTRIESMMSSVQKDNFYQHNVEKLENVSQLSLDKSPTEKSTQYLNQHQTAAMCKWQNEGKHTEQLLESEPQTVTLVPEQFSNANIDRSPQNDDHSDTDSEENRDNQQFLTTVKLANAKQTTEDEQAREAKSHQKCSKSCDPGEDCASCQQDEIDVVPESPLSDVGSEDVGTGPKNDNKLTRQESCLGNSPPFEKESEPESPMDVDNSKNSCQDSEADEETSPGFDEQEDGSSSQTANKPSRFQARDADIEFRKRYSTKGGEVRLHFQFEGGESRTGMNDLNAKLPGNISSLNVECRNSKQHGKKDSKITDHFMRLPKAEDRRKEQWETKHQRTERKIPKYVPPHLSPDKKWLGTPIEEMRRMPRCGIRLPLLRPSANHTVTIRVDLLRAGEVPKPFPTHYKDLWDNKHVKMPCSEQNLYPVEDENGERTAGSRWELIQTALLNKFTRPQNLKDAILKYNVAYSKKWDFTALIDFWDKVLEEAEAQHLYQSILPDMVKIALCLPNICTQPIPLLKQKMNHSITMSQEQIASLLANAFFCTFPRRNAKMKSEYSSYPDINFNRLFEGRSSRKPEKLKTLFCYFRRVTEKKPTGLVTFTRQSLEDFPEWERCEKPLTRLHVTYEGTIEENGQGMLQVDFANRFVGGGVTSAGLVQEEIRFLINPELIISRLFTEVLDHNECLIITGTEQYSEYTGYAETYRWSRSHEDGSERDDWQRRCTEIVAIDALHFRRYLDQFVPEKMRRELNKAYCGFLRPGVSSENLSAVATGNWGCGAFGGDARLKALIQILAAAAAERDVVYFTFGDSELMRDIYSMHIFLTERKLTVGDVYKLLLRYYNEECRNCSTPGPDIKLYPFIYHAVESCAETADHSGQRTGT

Regarding `CCn1c(=O)c2cc(S(=O)(=O)N[C@@]3(C)C[C@H]3CCO)ccc2n(CC)c1=O` (single isomer, unassigned) [Example 15A], the 50% inhibitory concentration (IC50) at PARG [1] is greater than 100 µM; on PARG [2] it was 500 to 5000 nM.
On the same counts, the results for `CCn1c(=O)c2cc(S(=O)(=O)NC3(C#N)COC3)ccc2n(CC)c1=O` [Example 10, N-(3-cyanooxetan-3-yl)-1,3-diethyl-2,4-dioxoquinazoline-6-sulfonamide] are 10 to 100 µM and 500 to 5000 nM.
In the same order, the values of `COC(=O)/C=C/Cn1c(=O)[nH]c2ccc(S(=O)(=O)NC3(C)COC3)cc2c1=O` [Example 9, methyl (2E)-4-{6-[(3-methyloxetan-3-yl)sulfamoyl]-2,4-dioxo-1H-quinazolin-3-yl}but-2-enoate] are 10 to 100 µM and 500 to 5000 nM.
In the same order, the values of `NC(=O)/C=C/Cn1c(=O)[nH]c2ccc(S(=O)(=O)NC34CC(C3)C4)cc2c1=O` [Example 3, (2E)-4-[6-({bicyclo[1.1.1]pentan-1-yl}sulfamoyl)-2,4-dioxo-1H-quinazolin-3-yl]but-2-enamide] are greater than 100 µM and 500 to 5000 nM.
Take `CC[C@H]1C[C@@]1(C)NS(=O)(=O)c1ccc2c(c1)c(=O)n(CC)c(=O)n2CC` (single isomer, unassigned) [Example 13D]: the results for the IC50 against PARG [1] and on PARG [2] were greater than 100 µM and no less than 5000 nM, respectively.
In the same order, the values of `CCn1c(=O)c2cc(S(=O)(=O)NC3(CF)COC3)ccc2n(CC)c1=O` [Example 20, 1,3-diethyl-N-(3-(fluoromethyl)oxetan-3-yl)-2,4-dioxo-1,2,3,4-tetrahydroquinazoline-6-sulfonamide] are 10 to 100 µM and 50 to 500 nM.
In the same order, the values of `CCn1c(=O)c2cc(S(=O)(=O)N[C@@]3(C)CO[C@H]3C)ccc2n(CC)c1=O` (single isomer, unassigned) [Example 17A] are 10 to 100 µM and 50 to 500 nM.
In the same order, the values of `COC(=O)/C=C/Cn1c(=O)c2cc(S(=O)(=O)NC3(C)COC3)ccc2n(CC2COC2)c1=O` [Example 11, methyl (2E)-4-{6-[(3-methyloxetan-3-yl)sulfamoyl]-1-(oxetan-3-ylmethyl)-2,4-dioxoquinazolin-3-yl}but-2-enoate] are less than 10 µM and 500 to 5000 nM.
Take `CCn1c(=O)c2cc(S(=O)(=O)NC3(C)COC3)ccc2n(CC)c1=O` [Example 4, 1,3-diethyl-N-(3-methyloxetan-3-yl)-2,4-dioxoquinazoline-6-sulfonamide]: the IC50 was in the range of 10 to 100 µM against PARG [1] and 50 to 500 nM at PARG [2].
On the same counts, the results for `CCOC(=O)/C=C/Cn1c(=O)[nH]c2ccc(S(=O)(=O)NC34CC(C3)C4)cc2c1=O` [Example 1, ethyl (2E)-4-[6-({bicyclo[1.1.1]pentan-1-yl}sulfamoyl)-2,4-dioxo-1H-quinazolin-3-yl]but-2-enoate] are greater than 100 µM and no less than 5000 nM.
`CCn1c(=O)c2cc(S(=O)(=O)NC3(C)CCOC3)ccc2n(CC)c1=O` (stereo not drawn) [Example 8, 1,3-diethyl-N-(3-methyloxolan-3-yl)-2,4-dioxoquinazoline-6-sulfonamide]: at PARG [1], the IC50 is greater than 100 µM.
`CCn1c(=O)c2cc(S(=O)(=O)NC3(C)CSC3)ccc2n(CC)c1=O` [Example 5, 1,3-diethyl-N-(3-methylthietan-3-yl)-2,4-dioxoquinazoline-6-sulfonamide]: the results for the half-maximal inhibitory concentration (IC50) at PARG [1] and at PARG [2] were greater than 100 µM and 500 to 5000 nM, respectively.
Regarding `O=C(O)/C=C/Cn1c(=O)[nH]c2ccc(S(=O)(=O)NC34CC(C3)C4)cc2c1=O` [Example 2, (2E)-4-[6-({bicyclo[1.1.1]pentan-1-yl}sulfamoyl)-2,4-dioxo-1H-quinazolin-3-yl]but-2-enoic Acid], the IC50 is greater than 100 µM against PARG [1] and no less than 5000 nM against PARG [2].
In the same order, the values of `CC(C)C(=O)N1CCN(c2cc(S(=O)(=O)NC3(C)COC3)cc3c2cnn3-c2nnc(C(F)F)s2)CC1` [Example 6, 1-[5-(difluoromethyl)-1,3,4-thiadiazol-2-yl]-N-(3-methyloxetan-3-yl)-4-[4-(2-methylpropanoyl)piperazin-1-yl]indazole-6-sulfonamide] are less than 10 µM and less than 50 nM.
In the same order, the values of `CCn1c(=O)c2cc(S(=O)(=O)N[C@@]3(C)C[C@H]3CC#N)ccc2n(CC)c1=O` (racemic) [Example 16, N-((1SR,2SR)-2-(cyanomethyl)-1-methylcyclopropyl)-1,3-diethyl-2,4-dioxo-1,2,3,4-tetrahydroquinazoline-6-sulfonamide] are greater than 100 µM and no less than 5000 nM.
On the same counts, the results for `CNC(=O)/C=C/Cn1c(=O)[nH]c2ccc(S(=O)(=O)NC3(C)COC3)cc2c1=O` [Example 19, (E)-N-methyl-4-(6-(N-(3-methyloxetan-3-yl)sulfamoyl)-2,4-dioxo-1,4-dihydroquinazolin-3(2H)-yl) but-2-enamide] are greater than 100 µM and 500 to 5000 nM.
Turning to `CCn1c(=O)c2cc(S(=O)(=O)NC3(C)CCC3)ccc2n(CC)c1=O` [Example 7, 1,3-diethyl-N-(1-methylcyclobutyl)-2,4-dioxoquinazoline-6-sulfonamide], the IC50 against PARG [1] was greater than 100 µM; at PARG [2], no less than 5000 nM.
In the same order, the values of `CCn1c(=O)c2cc(S(=O)(=O)NC3(C(F)F)COC3)ccc2n(CC)c1=O` [Example 18, N-(3-(difluoromethyl)oxetan-3-yl)-1,3-diethyl-2,4-dioxo-1,2,3,4-tetrahydroquinazoline-6-sulfonamide] are greater than 100 µM and 500 to 5000 nM.
In the same order, the values of `Cc1ncc(Cn2c(=O)c3cc(S(=O)(=O)NC4(C)COC4)ccc3n(Cc3sc(C)nc3C)c2=O)s1` [Example 14, 1-((2,4-dimethylthiazol-5-yl)methyl)-N-(3-methyloxetan-3-yl)-3-((2-methylthiazol-5-yl)methyl)-2,4-dioxo-1,2,3,4-tetrahydroquinazoline-6-sulfonamide] are 10 to 100 µM and less than 50 nM.
In the same order, the values of `COC(=O)/C=C/CCn1c(=O)[nH]c2ccc(S(=O)(=O)NC3(C)COC3)cc2c1=O` [Example 12, methyl (E)-5-(6-(N-(3-methyloxetan-3-yl)sulfamoyl)-2,4-dioxo-1,4-dihydroquinazolin-3(2H)-yl)pent-2-enoate] are greater than 100 µM and 500 to 5000 nM.
